Data published in US8450070B2, “Method for screening of cell-protecting agent” (Takeda Pharmaceutical Company Limited, priority 2007, dated 2013).

Assays:
Hsp70 = Hsp70 expression-inducing activity in the presence of IL-1β stimulation (western blotting); type: cell-based; conditions: human normal articular chondrocytes, 10 ng/ml IL-1β, 2 days; FIG. 3
Procedure: In an embodiment of the step (2), the heat shock protein expression-inducing activity of a test compound was measured using a cell capable of expressing a heat shock protein. Hsp70 was used as the heat shock protein.
Human normal articular chondrocytes (manufactured by Clonetics Corporation) were grown by monolayer culture in a growth medium for articular chondrocytes (CGM, manufactured by Clonetics Corporation) and then suspended to 2.2×10^4 cells/ml in a 1:1 mixture of Dulbecco's modified Eagle's medium/Ham F12 medium. The cell culture was inoculated into a 12-well plate (manufactured by Asahi Techno Glass Corporation) by 3 ml per each well, followed by incubation at 37° C. for a day under 5% CO2. […]
After completion of the electrophoresis, the proteins in the gel were adsorbed onto a nitrocellulose membrane (Hybond-ECL; manufactured by Amersham Pharmacia Biotech Inc.) using HorizBlot (manufactured by Atto Co.). Each protein level was measured by western blotting using anti-Hsp70 antibody (manufactured by Transduction Laboratories) or anti-β-actin antibody (manufactured by Sigma, Inc.) as a primary antibody and horseradish peroxidase-labeled anti-mouse IgG antibody (manufactured by Kirkegaard & Perry Laboratories) as a secondary antibody. β-Actin was used to verify adsorption of the proteins onto the nitrocellulose membrane.

[1] = tested on: human normal articular chondrocytes; test: Cell protecting activity against NOR3-induced apoptosis (MTT); type: cell-based; conditions: 10 ng/ml IL-1β, 110 μM NOR3, human normal articular chondrocytes; FIG. 6
Procedure: First, human normal articular chondrocytes were suspended to 4×10^4 cells/ml in a growth medium for articular chondrocytes. The cell culture was inoculated into a 96-well plate, followed by incubation at 37° C. for a day under 5% CO2. The medium was exchanged to a 1:1 mixture of Dulbecco's modified Eagle's medium/Ham F12 medium. The test compound and 10 ng/ml of […] were added to the medium, followed by further incubation at 37° C. for a day under 5% CO2. Next, 110 μM nitrogen monoxide-releasing reagent, i.e., (±)-(E)-4-ethyl-2-[(E)-hydroximino]-5-nitro-3-hexenamide (NOR3; manufactured by Dojindo) was added and the mixture was incubated for a day to induce apoptosis of the cells. After completion of the incubation, a viability of the cells was determined using 3-(4,5-dimethylthiazol-2-yl)-2,5-diphenyltetrazorium bromide (MTT; manufactured by Dojindo). […] Compound A was verified to have an excellent cell protecting activity.

[2] = tested on: human normal articular chondrocytes; test: Cytotoxicity (cell viability, WST-8); type: cell-based; conditions: for cell viability (WST-8): 2 days, FIG. 7
Procedure: First, human normal articular chondrocytes were suspended to 5×10^4 cells/ml in a growth medium for articular chondrocytes. The cell culture was inoculated into a 96-well plate, followed by incubation at 37° C. for a day under 5% CO2. The test compound was added to the medium, followed by incubation at 37° C. for further 2 days under 5% CO2.

His-hHsp90α = molecular target: T1, His-hHsp90α (Homo sapiens, UniProt P07900); test: Inhibition of binding of His-hHsp90α to immobilized Compound B (SDS-PAGE, silver stain); conditions: various concentrations of test compound; FIG. 1
T1 construct: the Hsp90α coding region was amplified from a human skeletal complementary DNA (cDNA) library; His tag (N); made in house; host or cells: Escherichia coli BL21 (DE3), plasmid pET28b-hHsp90α
Procedure: In an embodiment of the step (1) in the screening method of the invention, the steps of measuring and comparing (i) the binding level of an immobilized imidazothiazine derivative to Hsp90 in the absence of a test compound and (ii) the binding level of an immobilized imidazothiazine derivative to Hsp90 in the presence of a test compound, were performed as follows.
Purified human Hsp90α protein (His-hHsp90α) tagged with histidine at the N terminus through using Escherichia coli was employed as Hsp90.
First, 10 μg of His-hHsp90α was reacted with a test compound of various concentrations in 0.2 ml of a binding buffer (10 mM Tris-HCl, pH 7.5, 20% glycerol, 1 mM EDTA, 500 mM NaCl and 1 mM DTT) containing 0.5% DMF for 30 minutes.

His2-hHsp90α protein = molecular target: T2, His2-hHsp90α protein (Homo sapiens, UniProt P07900); test: Inhibition of binding of [3H]-Compound A to immobilized His2-hHsp90α (SPA beads); conditions: 40 nM [3H]-Compound A, various concentrations of test compound; FIG. 2
T2 construct: the hHsp90α gene was excised from pET28b-hHsp90α using the BamHI cleavage site and the Bpu1102I cleavage site; made in house; host or cells: Escherichia coli BL21 (DE3), plasmid pET15b-hHsp90α
Procedure: In another embodiment of the step (1) of the screening method according to the present invention, measuring and comparing (i) the binding level of immobilized Hsp90 to a labeled imidazothiazine derivative in the absence of a test compound and (ii) the binding level of immobilized Hsp90 to a labeled imidazothiazine derivative in the presence of a test compound were performed.
Purified human Hsp90α protein (His2-hHsp90a) tagged with histidine at the N terminus through using Escherichia coli was employed as Hsp90.
The mixture was reacted overnight at 4° C. in a 96-well LumiNunc plate (manufactured by Nunc, Inc.). The above procedure gave immobilized Hsp90 in which the His2-hHsp90α protein was bound to Ysi (2-5 μm) copper his-tag SPA beads via histidine tag.

Hsp90/HSF-1 complex = molecular target: T3, Hsp90/HSF-1 complex (Homo sapiens, UniProt P07900); test: Hsp90/HSF-1 complex disrupting activity (immunoprecipitation from chondrocyte lysate, western blotting); type: biochemical; conditions: 1 μM compound, 30 minutes, FIG. 4, lane 3
T3 construct: host or cells: human normal articular chondrocytes (lysate)
Procedure: In another embodiment of the step (2), the activity of a test compound to disrupt the Hsp90/HSF-1 complex was measured. The substance having the activity to disrupt Hsp90/HSF-1 complex is expected to show the heat shock protein expression-inducing activity.
Human normal articular chondrocytes (manufactured by Clonetics) were washed with PBS and dissolved in RIPA buffer solution (50 mM Tris-HCl, pH 8.0, 150 mM NaCl, 1% NP-40, 0.1% SDS and 0.5% deoxycholic acid) containing a proteinase inhibitor (Complete; Boehringer Mannheim). After the solution was centrifuged at 16,000×g for 10 minutes, the supernatant was used as the lysate containing the Hsp90/HSF-1 complex. […]
After completion of the electrophoresis, the proteins in the gel were adsorbed onto a nitrocellulose membrane (Hybond-ECL; manufactured by Amersham Pharmacia Biotech Inc.) using HorizBlot (manufactured by Atto Co.). Each protein level was measured by western blotting using anti-HSF-1 antibody (manufactured by StressGen) or anti-Hsp90 antibody (manufactured by Transduction Laboratories) as a primary antibody and horseradish peroxidase-labeled anti-rabbit IgG antibody (manufactured by Cell Signaling Technology) or horseradish peroxidase-labeled anti-mouse IgG antibody (manufactured by Kirkegasrd & Perry Laboratories) as a secondary antibody.

[3] = tested on: Hsp90 client protein such as glucocorticoid receptor, Akt, cyclin dependent kinase 4; test: Hsp90 client protein degradation-inducing activity (western blotting); type: cell-based, human
Procedure: Human normal articular chondrocytes were suspended to 0.5×10^5 cells/ml in a growth medium for articular chondrocytes. The cell culture was inoculated into a 6-well plate (manufactured by Falcon Co., Ltd.) by 2 ml per each well, followed by incubation at 37° C. for a day under 5% CO2. The medium was exchanged to a 1:1 mixture of Dulbecco's modified Eagle's medium/Ham F12 medium, followed by further incubation at 37° C. for a day under 5% CO2.
The test compound was added to the culture medium and the cells were further incubated for about 18 hours at 37° C. under 5% CO2. After completion of the incubation, the cells were washed once with phosphate-buffered saline (PBS) and 200 μl of a cell lysate buffer (10 mM Tris(hydroxymethyl)aminomethane, pH 7.4, 150 mM NaCl, 1 mM EDTA.2Na, 1 mM EGTA, 0.5 mM (p-aminophenyl)methanesulfonyl fluoride hydrochloride, 200 μM sodium β-glycerophosphate n-hydrate, 20 mM NaF, 2 mM sodium diphosphate decahydrate, 10 μg/ml aprotinin, 10 μg/ml leupeptin, 1% Triton X-100, 0.5% Nonidet P40, 0.1% SDS and 1 mM o-vanadate) was added thereto. After the cell debris was scraped from the plate using a cell scraper, the cell lysate buffer was recovered. The recovered cell lysate buffer was mixed with the equal volume of a sample buffer (Tris-SDS-ME Sample Buffer; manufactured by Daiichi Pure Chemicals). […]

Row | binding level of the His-hHsp90α protein to the immobilized Compound B (His-hHsp90α) | binding level of the His2-hHsp90α protein to [3H]-compound A (His2-hHsp90α protein) | co-precipitation of HSF-1 with Hsp90 (anti-Hsp90 antibody immunoprecipitation) (Hsp90/HSF-1 complex) | Structure (SMILES) | Hsp70 protein level (Hsp70) | apoptosis / cell viability after NOR3 (MTT) [1] | cell viability (WST-8) ([2]; at concentrations of 30 nM or higher) | intracellular protein level of Hsp90 client protein (glucocorticoid receptor, Akt, cyclin dependent kinase 4) ([3]; human normal articular chondrocytes, about 18 hours, at concentrations of 10 μM or less, FIG. 5) | client protein degradation-inducing activity as compared to GA ([3]; ratio relative to GA) | cell viability (WST-8) ([2]; at concentrations of 10 μM or less) | cytotoxicity relative to that of GA ([2]; ratio relative to GA)
1 |  |  |  | COC1=C2C[C@@H](C)C[C@H](OC)[C@H](O)[C@@H](C)/C=C(\C)[C@H](OC(N)=O)[C@@H](OC)/C=C\C=C(/C)C(=O)NC(=CC1=O)C2=O (relative stereo) [GA, [18S-(4E,5Z,8R*,9R*,10E,12R*,13S*,14R*,16S*)]-9-[(aminocarbonyl)oxy]-13-hydroxy-8,14,19-trimethoxy-4,10,12,16-tetramethyl-2-azabicyclo[16.3.1.]docosa-4,6,10,18,21-pentan-3,20,22-trion, reference compound] | clearly increased | decreased the cell viability | greatly decreased |  |  |  | 
2 | dose-dependently decreased | dose-dependently decreased | not observed | Cc1ccc(S(=O)(=O)/N=c2\[nH]c(=O)n3c(C)c(C)sc(SCCCC(F)(F)C(F)(F)F)c2-3)cc1 [Compound A, N-[(1Z)-5,6-dimethyl-3-oxo-8-[(4,4,5,5,5-pentafluoropentyl)sulfanyl]-2,3-dihydro-1H-imidazo[5,1-c][1,4]thiazin-1-ylidene]-4-methylbenzenesulfonamide] | clearly increased | dose-dependently suppressed the apoptosis |  | did not affect | less than 1/1000 | did not affect | 1/300
